# Assay results taken from PubChem BioAssay AID1963982 (Molecular Pharmacology Branch, DTP, NCI, 2024).
# Several values for one entry are separate records, joined by “and”; a condition that tells them apart may be missing. Equal values may be shown once.
# Test system: 313798-341-R-J2-PDC spheroids, viability
# Experiment: Anticancer human tumor 313798-341-R-J2-PDC patient-derived cervical squamous cell carcinoma cell line growth inhibition [PI3K]
# Conditions: spheroids with HUVEC and MSC; for viability, T/C: stronger effect = lower value
# In short: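 Stroma-containing spheroids: tumor line, pooled-donor HUVEC, hMSC. Treatments: targeted agents with PI3K inhibitors. Dosing: clinically relevant, half-log spacing, 10 microM ceiling without known Cmax. Read-out: cell viability.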
# [1] = curve of first compound, second compound 0.0316 µM
# [2] = curve of first compound, second compound 0.1 µM
# [3] = curve of first compound, second compound 0.316 µM
# [4] = curve of first compound, second compound 1 µM
# [5] = curve of first compound, second compound 3.16 µM
# [6] = curve of first compound, second compound 10 µM
# 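Further: spheroids exposed to compounds for seven days.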
# 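Wherever viability, T/C is given: 100% = DMSO vehicle control viability.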
smiles,measurement,setting,value
Cn1cnc2c(F)c(Nc3ccc(Br)cc3Cl)c(C(=O)NOCCO)cc21 + CC(Nc1ncnc2nc[nH]c12)c1cc2cccc(Cl)c2c(=O)n1-c1ccccc1,IC50,[1],> 3 µM
same,IC50,[2],> 3 µM
same,IC50,[3],> 3 µM
same,IC50,[4],> 3 µM
same,IC50,[5],> 3 µM
same,IC50,[6],> 3 µM
same,"viability, T/C","second compound 0.0316 µM, first compound 0.00949 µM",97.3%
same,"viability, T/C","second compound 0.0316 µM, first compound 0.03 µM",99%
same,"viability, T/C","second compound 0.0316 µM, first compound 0.0949 µM",92.1%
same,"viability, T/C","second compound 0.0316 µM, first compound 0.3 µM",91.4%
same,"viability, T/C","second compound 0.0316 µM, first compound 0.949 µM",89.2%
same,"viability, T/C","second compound 0.0316 µM, first compound 3 µM",77.9%
same,"viability, T/C","second compound 0.1 µM, first compound 0.00949 µM",85.7%
same,"viability, T/C","second compound 0.1 µM, first compound 0.03 µM",95.7%
same,"viability, T/C","second compound 0.1 µM, first compound 0.0949 µM",89%
same,"viability, T/C","second compound 0.1 µM, first compound 0.3 µM",95.2%
same,"viability, T/C","second compound 0.1 µM, first compound 0.949 µM",80%
same,"viability, T/C","second compound 0.1 µM, first compound 3 µM",81.3%
same,"viability, T/C","second compound 0.316 µM, first compound 0.00949 µM",87.2%
same,"viability, T/C","second compound 0.316 µM, first compound 0.03 µM",93.7%
same,"viability, T/C","second compound 0.316 µM, first compound 0.0949 µM",87.6%
same,"viability, T/C","second compound 0.316 µM, first compound 0.3 µM",92.7%
same,"viability, T/C","second compound 0.316 µM, first compound 0.949 µM",87.1%
same,"viability, T/C","second compound 0.316 µM, first compound 3 µM",74.6%
same,"viability, T/C","second compound 1 µM, first compound 0.00949 µM",96.6%
same,"viability, T/C","second compound 1 µM, first compound 0.03 µM",98.1%
same,"viability, T/C","second compound 1 µM, first compound 0.0949 µM",90.3%
same,"viability, T/C","second compound 1 µM, first compound 0.3 µM",86.1%
same,"viability, T/C","second compound 1 µM, first compound 0.949 µM",90.1%
same,"viability, T/C","second compound 1 µM, first compound 3 µM",71.5%
same,"viability, T/C","second compound 3.16 µM, first compound 0.00949 µM",92.4%
same,"viability, T/C","second compound 3.16 µM, first compound 0.03 µM",87.7%
same,"viability, T/C","second compound 3.16 µM, first compound 0.0949 µM",94.3%
same,"viability, T/C","second compound 3.16 µM, first compound 0.3 µM",89%
same,"viability, T/C","second compound 3.16 µM, first compound 0.949 µM",79.7%
same,"viability, T/C","second compound 3.16 µM, first compound 3 µM",76.8%
same,"viability, T/C","second compound 10 µM, first compound 0.00949 µM",75.2%
same,"viability, T/C","second compound 10 µM, first compound 0.03 µM",81.3%
same,"viability, T/C","second compound 10 µM, first compound 0.0949 µM",80.8%
same,"viability, T/C","second compound 10 µM, first compound 0.3 µM",73.8%
same,"viability, T/C","second compound 10 µM, first compound 0.949 µM",80.5%
same,"viability, T/C","second compound 10 µM, first compound 3 µM",53.1%
CNC(=O)c1ccc(N2C(=S)N(c3ccc(C#N)c(C(F)(F)F)c3)C(=O)C2(C)C)cc1F,"viability, T/C",compound 0.0316 µM,104% and 102% (2×) and 89%
same,"viability, T/C",compound 0.1 µM,99.5% [middle of 4 runs]
same,"viability, T/C",compound 0.316 µM,104% [middle of 4 runs]
same,"viability, T/C",compound 1 µM,102% [middle of 4 runs]
same,"viability, T/C",compound 3.16 µM,105% [middle of 4 runs]
same,"viability, T/C",compound 10 µM,102% [middle of 4 runs]
same,IC50,curve of compound,> 10 µM
C#Cc1c(F)ccc2cc(O)cc(-c3ncc4c(N5CC6CCC(C5)N6)nc(OCC56CCCN5CC(F)C6)nc4c3F)c12 (stereo not drawn) + Cc1nc(NC(=O)N2CCCC2C(N)=O)sc1-c1ccnc(C(C)(C)C(F)(F)F)c1,IC50,[1],> 10 µM
same,IC50,[2],> 10 µM
same,IC50,[3],> 10 µM
same,IC50,[4],> 10 µM
same,IC50,[5],9.34 µM
same,IC50,[6],< 0.0316 µM
same,"viability, T/C","second compound 0.0316 µM, first compound 0.0316 µM",92.7%
same,"viability, T/C","second compound 0.0316 µM, first compound 0.1 µM",91.5%
same,"viability, T/C","second compound 0.0316 µM, first compound 0.316 µM",90.5%
same,"viability, T/C","second compound 0.0316 µM, first compound 1 µM",99.2%
same,"viability, T/C","second compound 0.0316 µM, first compound 3.16 µM",103%
same,"viability, T/C","second compound 0.0316 µM, first compound 10 µM",102%
same,"viability, T/C","second compound 0.1 µM, first compound 0.0316 µM",105%
same,"viability, T/C","second compound 0.1 µM, first compound 0.1 µM",106%
same,"viability, T/C","second compound 0.1 µM, first compound 0.316 µM",112%
same,"viability, T/C","second compound 0.1 µM, first compound 1 µM",97%
same,"viability, T/C","second compound 0.1 µM, first compound 3.16 µM",105%
same,"viability, T/C","second compound 0.1 µM, first compound 10 µM",96.5%
same,"viability, T/C","second compound 0.316 µM, first compound 0.0316 µM",99.9%
same,"viability, T/C","second compound 0.316 µM, first compound 0.1 µM",98.4%
same,"viability, T/C","second compound 0.316 µM, first compound 0.316 µM",121%
same,"viability, T/C","second compound 0.316 µM, first compound 1 µM",108%
same,"viability, T/C","second compound 0.316 µM, first compound 3.16 µM",99.1%
same,"viability, T/C","second compound 0.316 µM, first compound 10 µM",100%
same,"viability, T/C","second compound 1 µM, first compound 0.0316 µM",97.6%
same,"viability, T/C","second compound 1 µM, first compound 0.1 µM",80.3%
same,"viability, T/C","second compound 1 µM, first compound 0.316 µM",89.3%
same,"viability, T/C","second compound 1 µM, first compound 1 µM",89.7%
same,"viability, T/C","second compound 1 µM, first compound 3.16 µM",90.9%
same,"viability, T/C","second compound 1 µM, first compound 10 µM",79%
same,"viability, T/C","second compound 3.16 µM, first compound 0.0316 µM",59.9%
same,"viability, T/C","second compound 3.16 µM, first compound 0.1 µM",62.5%
same,"viability, T/C","second compound 3.16 µM, first compound 0.316 µM",59.1%
same,"viability, T/C","second compound 3.16 µM, first compound 1 µM",60.1%
same,"viability, T/C","second compound 3.16 µM, first compound 3.16 µM",54.6%
same,"viability, T/C","second compound 3.16 µM, first compound 10 µM",44.8%
same,"viability, T/C","second compound 10 µM, first compound 0.0316 µM",41.7%
same,"viability, T/C","second compound 10 µM, first compound 0.1 µM",39.8%
same,"viability, T/C","second compound 10 µM, first compound 0.316 µM",33.2%
same,"viability, T/C","second compound 10 µM, first compound 1 µM",33.9%
same,"viability, T/C","second compound 10 µM, first compound 3.16 µM",31.3%
same,"viability, T/C","second compound 10 µM, first compound 10 µM",27.2%
CCCS(=O)(=O)Nc1ccc(F)c(C(=O)c2c[nH]c3ncc(-c4ccc(Cl)cc4)cc23)c1F,"viability, T/C",compound 0.0316 µM,98.2% [middle of 4 runs]
same,"viability, T/C",compound 0.1 µM,102% [middle of 4 runs]
same,"viability, T/C",compound 0.316 µM,101% [middle of 4 runs]
same,"viability, T/C",compound 1 µM,100% [middle of 4 runs]
same,"viability, T/C",compound 3.16 µM,107% (2×) and 99.1% and 108%
same,"viability, T/C",compound 10 µM,18.7% [middle of 4 runs]
same,IC50,curve of compound,6.37 µM [middle of 4 runs]
